# Laboratory results as given in patent US11746087B1, “C4-carboxylic acid-substituted tryptamine derivatives and methods of using” (priority 2022, dated 2023).
# Key:
# [1] = target: T1, HTR1A (5-HT1A) (Homo sapiens, UniProt P08908); test: EFC-based cAMP secondary messenger assay, antagonist mode; format: cell-based
# T1 sequence (P08908 1-422): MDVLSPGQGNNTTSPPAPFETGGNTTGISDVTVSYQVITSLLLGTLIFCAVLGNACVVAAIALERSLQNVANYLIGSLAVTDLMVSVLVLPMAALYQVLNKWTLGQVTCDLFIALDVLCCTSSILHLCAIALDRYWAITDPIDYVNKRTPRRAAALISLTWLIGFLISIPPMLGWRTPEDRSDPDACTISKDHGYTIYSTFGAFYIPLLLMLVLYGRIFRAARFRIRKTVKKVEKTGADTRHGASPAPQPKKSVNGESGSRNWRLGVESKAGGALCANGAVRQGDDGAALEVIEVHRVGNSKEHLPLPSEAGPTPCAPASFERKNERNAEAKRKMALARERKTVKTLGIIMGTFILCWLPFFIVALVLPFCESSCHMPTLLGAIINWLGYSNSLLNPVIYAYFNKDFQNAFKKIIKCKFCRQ
# [2] = target: T2, ADRA2A (Homo sapiens, UniProt P08913); test: as above; format: cell-based
# T2 sequence (P08913 1-465): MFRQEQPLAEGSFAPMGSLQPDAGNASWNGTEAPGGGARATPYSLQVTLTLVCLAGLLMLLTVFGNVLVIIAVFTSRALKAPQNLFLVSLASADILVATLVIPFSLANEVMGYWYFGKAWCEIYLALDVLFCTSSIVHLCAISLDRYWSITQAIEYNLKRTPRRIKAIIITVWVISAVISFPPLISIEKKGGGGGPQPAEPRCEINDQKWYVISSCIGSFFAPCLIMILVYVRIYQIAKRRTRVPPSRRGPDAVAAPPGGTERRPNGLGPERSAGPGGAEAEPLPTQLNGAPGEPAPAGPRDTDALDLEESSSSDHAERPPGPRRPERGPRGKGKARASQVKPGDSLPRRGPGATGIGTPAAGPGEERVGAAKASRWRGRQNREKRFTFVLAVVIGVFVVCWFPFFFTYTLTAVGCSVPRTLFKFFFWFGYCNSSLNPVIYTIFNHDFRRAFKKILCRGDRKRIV
# [3] = target: T3, NMDAR (Homo sapiens, UniProt Q05586+Q13224); test: Ion channel assay (FLIPR membrane potential), opener; format: cell-based
# [4] = target: T4, HTR3A (5-HT3A) (Homo sapiens, UniProt P46098); test: as above; format: cell-based
# T4 sequence (P46098 24-478): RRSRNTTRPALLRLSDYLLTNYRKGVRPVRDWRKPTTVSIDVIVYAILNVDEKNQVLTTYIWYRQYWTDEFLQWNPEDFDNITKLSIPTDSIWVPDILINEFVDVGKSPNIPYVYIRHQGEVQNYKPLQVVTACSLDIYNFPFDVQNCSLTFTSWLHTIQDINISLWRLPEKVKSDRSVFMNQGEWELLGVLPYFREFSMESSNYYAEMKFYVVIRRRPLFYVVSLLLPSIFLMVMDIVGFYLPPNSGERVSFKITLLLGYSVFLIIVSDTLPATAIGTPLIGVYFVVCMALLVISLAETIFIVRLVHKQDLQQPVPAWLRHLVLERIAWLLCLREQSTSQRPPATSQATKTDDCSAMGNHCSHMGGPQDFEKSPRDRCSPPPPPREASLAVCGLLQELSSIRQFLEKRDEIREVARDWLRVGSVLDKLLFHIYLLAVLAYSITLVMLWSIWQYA
# [5] = target: T3, NMDAR; test: Ion channel assay (FLIPR membrane potential), blocker; format: cell-based
# [6] = target: HTR2B (5-HT2B) (Homo sapiens, UniProt P41595); test: Calcium secondary messenger assay, agonist mode; format: cell-based
# [7] = target: T1, HTR1A (5-HT1A); test: EFC-based cAMP secondary messenger assay, agonist mode; format: cell-based
# [8] = target: OPRD1 (Homo sapiens, UniProt P41143); test: EFC-based cAMP secondary messenger assay, antagonist mode; format: cell-based
# [9] = Dosing solution concentration by LC-MS (measured vs nominal); format: physicochemical; details: C(IV) nominal 0.1 mg/mL
# Description: Briefly, the procedure was as follows. […] 19, 2022.
# Pharmacokinetic (PK) evaluations were performed in the same manner as described in Example 1, except compound C(IV) was used in place of compound C(V). […] Thus, only psilocin PK analysis was performed. […] Table 46 summarizes these “measured” concentrations along with corresponding “nominal” concentrations for each dosing solution. Results for psilocin PK following C(IV) administration are found in Tables 47A-47B (0.293 mg/kg IV dose), Tables 48A-48B (0.275 mg/kg oral dose), Tables 49A-49B (0.789 mg/kg oral dose), Tables 50A-50B (2.52 mg/kg oral dose), Table 51 (comparative summary for IV data), Table 52 (comparative summary for oral data), Table 53A (psilocin exposure) and FIGS. 10H (i) and 10H (ii).
# OPRD1, sequence (P41143 whole entry): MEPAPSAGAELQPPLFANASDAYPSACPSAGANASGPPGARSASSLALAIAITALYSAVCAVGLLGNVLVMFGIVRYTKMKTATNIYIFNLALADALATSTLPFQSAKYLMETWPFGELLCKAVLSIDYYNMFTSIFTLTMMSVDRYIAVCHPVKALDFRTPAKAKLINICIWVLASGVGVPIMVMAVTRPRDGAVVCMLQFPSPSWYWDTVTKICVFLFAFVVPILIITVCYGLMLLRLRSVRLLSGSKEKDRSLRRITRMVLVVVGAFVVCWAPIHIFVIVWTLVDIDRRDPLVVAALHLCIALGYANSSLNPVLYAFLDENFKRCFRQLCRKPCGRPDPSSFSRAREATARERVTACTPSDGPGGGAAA
# HTR2B (5-HT2B), sequence (P41595 whole entry): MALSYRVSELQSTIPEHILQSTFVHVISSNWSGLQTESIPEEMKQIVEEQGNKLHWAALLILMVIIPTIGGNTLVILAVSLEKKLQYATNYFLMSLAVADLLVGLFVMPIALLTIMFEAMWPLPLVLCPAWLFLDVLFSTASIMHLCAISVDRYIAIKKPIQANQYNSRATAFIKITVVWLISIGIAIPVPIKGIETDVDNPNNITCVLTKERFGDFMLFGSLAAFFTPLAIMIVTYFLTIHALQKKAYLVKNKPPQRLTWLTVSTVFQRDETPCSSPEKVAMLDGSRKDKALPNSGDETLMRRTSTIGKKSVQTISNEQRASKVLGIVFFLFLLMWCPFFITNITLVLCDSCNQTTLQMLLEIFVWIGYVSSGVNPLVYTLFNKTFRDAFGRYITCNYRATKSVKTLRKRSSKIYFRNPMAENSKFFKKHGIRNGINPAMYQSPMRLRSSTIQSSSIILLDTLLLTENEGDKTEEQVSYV
# T3 sequence (Q13224 27-1484, other chains not shown): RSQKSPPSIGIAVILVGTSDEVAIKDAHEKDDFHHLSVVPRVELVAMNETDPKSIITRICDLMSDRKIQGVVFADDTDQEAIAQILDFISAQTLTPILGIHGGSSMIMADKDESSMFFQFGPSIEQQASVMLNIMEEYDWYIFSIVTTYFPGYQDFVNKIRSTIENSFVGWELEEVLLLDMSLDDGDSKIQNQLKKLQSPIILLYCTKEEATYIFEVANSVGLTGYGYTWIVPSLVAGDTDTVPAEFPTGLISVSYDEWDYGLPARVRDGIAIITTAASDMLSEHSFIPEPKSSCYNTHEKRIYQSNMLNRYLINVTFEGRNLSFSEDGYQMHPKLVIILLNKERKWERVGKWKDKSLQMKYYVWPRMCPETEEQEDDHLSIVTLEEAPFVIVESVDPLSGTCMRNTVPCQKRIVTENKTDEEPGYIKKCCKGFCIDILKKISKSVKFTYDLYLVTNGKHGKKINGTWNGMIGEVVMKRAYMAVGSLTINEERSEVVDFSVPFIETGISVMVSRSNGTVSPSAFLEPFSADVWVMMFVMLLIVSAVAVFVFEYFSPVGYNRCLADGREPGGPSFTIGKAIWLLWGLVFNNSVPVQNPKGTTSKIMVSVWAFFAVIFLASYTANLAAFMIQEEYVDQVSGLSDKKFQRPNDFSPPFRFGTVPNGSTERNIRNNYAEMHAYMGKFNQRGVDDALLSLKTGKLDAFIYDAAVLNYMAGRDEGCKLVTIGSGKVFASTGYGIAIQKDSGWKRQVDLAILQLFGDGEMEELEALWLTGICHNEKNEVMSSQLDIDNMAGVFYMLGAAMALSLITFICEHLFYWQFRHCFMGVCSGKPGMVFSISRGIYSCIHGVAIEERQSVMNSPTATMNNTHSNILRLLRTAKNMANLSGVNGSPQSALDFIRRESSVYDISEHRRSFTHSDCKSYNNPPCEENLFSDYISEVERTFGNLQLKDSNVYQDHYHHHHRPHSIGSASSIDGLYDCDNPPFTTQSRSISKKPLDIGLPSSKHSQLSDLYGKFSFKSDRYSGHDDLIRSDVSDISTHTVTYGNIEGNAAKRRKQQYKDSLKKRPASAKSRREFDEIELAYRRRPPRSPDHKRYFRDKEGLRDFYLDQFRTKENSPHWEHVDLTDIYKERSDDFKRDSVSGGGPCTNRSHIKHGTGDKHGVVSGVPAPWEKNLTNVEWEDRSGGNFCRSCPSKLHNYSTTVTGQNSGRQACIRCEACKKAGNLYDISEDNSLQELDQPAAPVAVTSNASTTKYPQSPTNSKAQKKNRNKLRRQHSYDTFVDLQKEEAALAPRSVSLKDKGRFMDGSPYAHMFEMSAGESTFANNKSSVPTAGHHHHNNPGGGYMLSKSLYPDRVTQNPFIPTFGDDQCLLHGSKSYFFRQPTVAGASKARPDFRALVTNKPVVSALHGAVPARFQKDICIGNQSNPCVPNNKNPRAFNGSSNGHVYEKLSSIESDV
SMILES,IC50 [1] [µM],IC50 [2] [µM],EC50 [3] [µM],EC50 [4] [µM],IC50 [5] [µM],EC50 [6] [µM],EC50 [7] [µM],IC50 [8] [µM],"Psilocin, measured, in C(IV) residual dosing solution [9] [mg/mL]"
CN(C)CCc1c[nH]c2cccc(OC(=O)c3ccc(Br)cc3)c12 [C(I)],> 100,18.4,> 100,> 100,> 100,> 100,> 100,> 100,–
CN(C)CCc1c[nH]c2cccc(OC(=O)CC3CC3)c12 [C(IV)],> 100,> 100,> 100,> 100,> 100,> 100,5.56,> 100,0.00174
COc1ccc(C(=O)Oc2cccc3[nH]cc(CCN(C)C)c23)cc1 [C(V)],> 100,> 100,> 100,> 100,> 100,> 100,7.08,> 100,–
CN(C)CCc1c[nH]c2cccc(OC(=O)c3c(F)c(F)c(F)c(F)c3F)c12 [C(VI)],> 100,> 100,> 100,> 100,> 100,> 100,2.21,> 100,–
CN(C)CCc1c[nH]c2cccc(OC(=O)c3cccc4c3OCCO4)c12 [C(XX)],> 100,47.9,> 100,> 100,> 100,> 100,2.03,> 100,–
